US20170105969A1, “CENICRIVIROC FOR THE TREATMENT OF HIV-2 INFECTION” (Tobira Therapeutics, Inc., priority 2014, published 2017)
Marks after values point to notes of the source that are not given here.

Key:
HIV-1 [1] = assay: Study 202: virologic response (plasma HIV-1 RNA <50 copies/mL), Snapshot algorithm, ITT; type: in vivo, human; conditions: Week 24
From the text: The primary efficacy endpoint was the percentage of subjects with plasma HIV-1 RNA <50 copies/mL at Week 24 (using the FDA Snapshot algorithm and the ITT population).

[2] = APRI and FIB-4 fibrosis scores, post-hoc analysis of Study 202; type: in vivo, human
Protocol: Change in score category from baseline (BL) to Weeks 24 and 48 was assessed in patients with non-missing data. Correlations between changes from BL in APRI and FIB-4 scores, and MCP-1 (CCR2 ligand) and sCD14 (inflammatory biomarker) levels were evaluated.

MCP-1 = assay: Study 201: inflammatory markers MCP-1, hs-CRP, IL-6; type: in vivo, human
From the text: Exploratory efficacy endpoints included changes in the inflammatory markers MCP-1, hs-CRP, and IL-6.
(§1) Subjects were antiretroviral treatment experienced, CCR5 antagonist-naïve, with HIV-1 RNA levels of at least 5000 copies/mL and CD4+ cell counts of at least 250 cells/mm^3. Subjects with HIV-2, hepatitis B virus, or hepatitis C virus co-infection or dual/mixed-tropic HIV-1 were ineligible. Other than their HIV-1 infection, subjects were generally healthy.

CCR3 = molecular target: T1, CCR3 (Homo sapiens, UniProt P51677); assay: Ligand binding to CCR3
T1 sequence (P51677 1-355): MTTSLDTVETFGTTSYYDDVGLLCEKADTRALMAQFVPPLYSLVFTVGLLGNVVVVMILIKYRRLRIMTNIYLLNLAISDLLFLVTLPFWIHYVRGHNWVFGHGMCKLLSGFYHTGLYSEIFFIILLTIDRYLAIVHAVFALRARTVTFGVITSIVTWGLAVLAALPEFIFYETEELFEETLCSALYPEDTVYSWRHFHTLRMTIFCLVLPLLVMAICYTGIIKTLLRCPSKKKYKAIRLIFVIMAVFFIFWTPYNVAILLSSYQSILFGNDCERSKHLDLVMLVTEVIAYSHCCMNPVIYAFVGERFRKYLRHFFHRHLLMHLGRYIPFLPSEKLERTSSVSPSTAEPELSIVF

[3] = system: RANTES-induced Ca2+ mobilization; assay: RANTES-induced Ca2+ mobilization; type: cell-based
HIV-1 [4] = assay: Study 202: virologic response (plasma HIV-1 RNA <50 copies/mL), Snapshot algorithm, ITT; type: in vivo, human
HIV-1 [5] = assay: Study 201: pharmacokinetic/pharmacodynamic relationships (Emax model); type: in vivo, human
From the text: Drug response was characterized using the following maximum effect (Emax) model: […]

CCR5-tropic HIV-1 = assay: Study 201: plasma HIV-1 RNA over 10 days of CVC monotherapy; type: in vivo, human; conditions: for subjects who achieved HIV-1 RNA levels <400 copies/mL: over the entire study; for HIV-1 RNA, LS mean (SEM) change from Baseline / HIV-1 RNA, Median change from Baseline: Day 11
Protocol: as §1
In this study, all dose groups received the original formulation (DP3_25), except the 100 mg dose group which received an alternative formulation (DP4_100). […] These subjects were excluded from the efficacy, PK, and PK/PD data, but included in the baseline and safety data. In this study, safety and tolerability were assessed by monitoring AEs, vital signs, ECGs, clinical laboratory values from blood and urine, and physical examinations. Data from all subjects on placebo were pooled for the analyses.

CCCCOCCOc1ccc(-c2ccc3c(c2)/C=C(/C(=O)Nc2ccc([S@@+]([O-])Cc4cncn4CCC)cc2)CCCN3CC(C)C)cc1 [CVC, (S)-8-[4-(2-Butoxyethoxy)phenyl]-1-isobutyl-N-(4-{[(1-propyl-1H-imidazol-5-yl)methyl]sulfinyl}phenyl)-1,2,3,4-tetrahydro-1-benzazocine-5-carboxamide]
virologic non-response, subgroup with high baseline viral load (≧100,000 copies/mL) (HIV-1 [1]; CVC 100 mg): 20% | HIV-1 RNA ≧400 copies/mL (HIV-1 [1]; CVC 100 mg arm): (7%) | Treatment difference from EFV arm (HIV-1 [1]; CVC 100 mg arm): 5% | virologic non-response, subgroup with high baseline viral load (≧100,000 copies/mL) (HIV-1 [1]; CVC 200 mg): 29% | Discontinued study due to AE or death (HIV-1 [1]; CVC 200 mg arm): (2%) | HIV-1 RNA ≧50 but <400 copies/mL (HIV-1 [1]; CVC 200 mg arm): (7%)^e | Treatment difference from EFV arm (HIV-1 [1]; CVC 200 mg arm): 4% | patients in APRI category 0.5-1.5 ([2]; Baseline): 14% | patients in APRI category <0.5 ([2]; Baseline): 84% | patients in APRI category >1.5 ([2]; Baseline): 2% | patients in FIB-4 category 1.45-3.25 ([2]; Baseline): 17% | patients in FIB-4 category <1.45 ([2]; Baseline): 82% | patients in FIB-4 category >3.25 ([2]; Baseline): 1% | APRI: Decreased 1 category from baseline ([2]; Week 24): 14% | FIB-4: Decreased 1 category from baseline ([2]; Week 24): 13% | patients in APRI category 0.5-1.5 ([2]; Week 24): 7% | patients in APRI category <0.5 ([2]; Week 24): 93% | patients in FIB-4 category 1.45-3.25 ([2]; Week 24): 7% | patients in FIB-4 category <1.45 ([2]; Week 24): 93% | APRI: Decreased 1 category from baseline ([2]; Week 48): 10% | FIB-4: Decreased 1 category from baseline ([2]; Week 48): 14% | patients in APRI category 0.5-1.5 ([2]; Week 48): 8% | patients in APRI category <0.5 ([2]; Week 48): 91% | patients in APRI category >1.5 ([2]; Week 48): 1% | patients in FIB-4 category 1.45-3.25 ([2]; Week 48): 5% | patients in FIB-4 category <1.45 ([2]; Week 48): 94% | patients in FIB-4 category >3.25 ([2]; Week 48): 1% | MCP-1, Baseline Mean (MCP-1; 25 mg cohort): 20.0 pg/mL | MCP-1, Baseline Median (MCP-1; 25 mg cohort): 16.0 pg/mL | MCP-1, Change from Baseline to Day 10, Median (MCP-1; 25 mg once daily): +25.0 pg/mL | MCP-1, Day 10 Mean (MCP-1; 25 mg once daily): 75.3 pg/mL | MCP-1, Day 10 Median (MCP-1; 25 mg once daily): 39.0 pg/mL | MCP-1, Baseline Mean (MCP-1; 50 mg cohort): 12.6 pg/mL | MCP-1, Baseline Median (MCP-1; 50 mg cohort): 6.0 pg/mL | MCP-1, Change from Baseline to Day 10, Median (MCP-1; 50 mg once daily): +56.0 pg/mL | MCP-1, Day 10 Mean (MCP-1; 50 mg once daily): 101.3 pg/mL | MCP-1, Day 10 Median (MCP-1; 50 mg once daily): 65.0 pg/mL | MCP-1, Baseline Mean (MCP-1; 75 mg cohort): 26.6 pg/mL | MCP-1, Baseline Median (MCP-1; 75 mg cohort): 8.0 pg/mL | MCP-1, Change from Baseline to Day 10, Median (MCP-1; 75 mg once daily): +36.0 pg/mL | MCP-1, Day 10 Mean (MCP-1; 75 mg once daily): 59.1 pg/mL | MCP-1, Day 10 Median (MCP-1; 75 mg once daily): 43.5 pg/mL | MCP-1, Baseline Mean (MCP-1; 150 mg cohort): 31.6 pg/mL | MCP-1, Baseline Median (MCP-1; 150 mg cohort): 19.5 pg/mL | MCP-1, Change from Baseline to Day 10, Median (MCP-1; 150 mg once daily): +322.0 pg/mL | MCP-1, Day 10 Mean (MCP-1; 150 mg once daily): 372.0 pg/mL | MCP-1, Day 10 Median (MCP-1; 150 mg once daily): 368.0 pg/mL | effect on hs-CRP or IL-6 levels (in words) (MCP-1; 10-day study): no effect | inhibition of ligand binding (in words) (CCR3): weakly inhibited | RANTES-induced Ca2+ mobilization (in words) [3]: blocked | HIV-1 RNA ≧50 but <400 copies/mL (HIV-1 [4]; Week 24, CVC 100 mg arm): (5%)^d | HIV-1 RNA ≧400 copies/mL (HIV-1 [4]; Week 24, CVC 200 mg arm): (7%) | virologic non-response, subgroup with high baseline viral load (≧100,000 copies/mL) (HIV-1 [4]; Week 48, CVC 100 mg): 20% | Treatment difference from EFV arm (HIV-1 [4]; Week 48, CVC 100 mg arm): 18% | virologic non-response, subgroup with high baseline viral load (≧100,000 copies/mL) (HIV-1 [4]; Week 48, CVC 200 mg): 21% | Discontinued study due to AE or death (HIV-1 [4]; Week 48, CVC 200 mg arm): (2%) | Treatment difference from EFV arm (HIV-1 [4]; Week 48, CVC 200 mg arm): 16% | Week 48 non-response, CVC-treated Black or African American subjects (HIV-1 [4]; Week 48, both CVC arms): 8-15% | Emax in the PK/PD model (HIV-1 [5]; HIV-1 RNA, Study 201): −1.43 log10 copies/mL | Emax at 25 mg (HIV-1 [5]; Human immunodeficiency virus 1, 25 mg dose, read-out: percent of the maximum inhibitory effect at average Css (Emax model)): 54.9% | Emax at 50 mg (HIV-1 [5]; Human immunodeficiency virus 1, 50 mg dose, read-out: percent of the maximum inhibitory effect at average Css (Emax model)): 79.8% | Emax at 75 mg (HIV-1 [5]; Human immunodeficiency virus 1, 75 mg dose, read-out: percent of the maximum inhibitory effect at average Css (Emax model)): 85.9% | Emax at 150 mg (HIV-1 [5]; Human immunodeficiency virus 1, 150 mg dose, read-out: percent of the maximum inhibitory effect at average Css (Emax model)): 95.9% | HIV-1 RNA, Baseline LS mean (SEM) (CCR5-tropic HIV-1; 25 mg cohort, Baseline): 4.46 (0.18) log10 copies/mL | subjects who achieved HIV-1 RNA levels <400 copies/mL (CCR5-tropic HIV-1; 25 mg dose group): 1 | HIV-1 RNA, Nadir values, Median change from Baseline (CCR5-tropic HIV-1; 25 mg once daily): −0.7 log10 copies/mL | Median days to nadir (CCR5-tropic HIV-1; 25 mg once daily): 10.0 days | HIV-1 RNA, LS mean (SEM) change from Baseline (CCR5-tropic HIV-1; 25 mg once daily): −0.64 (0.14) log10 copies/mL | HIV-1 RNA, Median change from Baseline (CCR5-tropic HIV-1; 25 mg once daily): −0.5 log10 copies/mL | HIV-1 RNA, Baseline LS mean (SEM) (CCR5-tropic HIV-1; 50 mg cohort, Baseline): 4.33 (0.21) log10 copies/mL | subjects who achieved HIV-1 RNA levels <400 copies/mL (CCR5-tropic HIV-1; 50 mg dose group): 2 | HIV-1 RNA, Nadir values, Median change from Baseline (CCR5-tropic HIV-1; 50 mg once daily): −1.6 log10 copies/mL | Median days to nadir (CCR5-tropic HIV-1; 50 mg once daily): 11.0 days | HIV-1 RNA, LS mean (SEM) change from Baseline (CCR5-tropic HIV-1; 50 mg once daily): −1.13 (0.16) log10 copies/mL | HIV-1 RNA, Median change from Baseline (CCR5-tropic HIV-1; 50 mg once daily): −1.3 log10 copies/mL | HIV-1 RNA, Baseline LS mean (SEM) (CCR5-tropic HIV-1; 75 mg cohort, Baseline): 4.65 (0.19) log10 copies/mL | HIV-1 RNA, Nadir values, Median change from Baseline (CCR5-tropic HIV-1; 75 mg once daily): −1.8 log10 copies/mL | Median days to nadir (CCR5-tropic HIV-1; 75 mg once daily): 10.0 days | HIV-1 RNA, LS mean (SEM) change from Baseline (CCR5-tropic HIV-1; 75 mg once daily): −1.46 (0.15) log10 copies/mL | HIV-1 RNA, Median change from Baseline (CCR5-tropic HIV-1; 75 mg once daily): −1.6 log10 copies/mL | HIV-1 RNA, Baseline LS mean (SEM) (CCR5-tropic HIV-1; 150 mg cohort, Baseline): 4.10 (0.19) log10 copies/mL | subjects who achieved HIV-1 RNA levels of <50 copies/mL (CCR5-tropic HIV-1; 150 mg dose group): 2 | subjects who achieved HIV-1 RNA levels <400 copies/mL (CCR5-tropic HIV-1; 150 mg dose group): 3 | HIV-1 RNA, Nadir values, Median change from Baseline (CCR5-tropic HIV-1; 150 mg once daily): −1.7 log10 copies/mL | Median days to nadir (CCR5-tropic HIV-1; 150 mg once daily): 11.0 days | HIV-1 RNA, LS mean (SEM) change from Baseline (CCR5-tropic HIV-1; 150 mg once daily): −1.42 (0.16) log10 copies/mL | HIV-1 RNA, Median change from Baseline (CCR5-tropic HIV-1; 150 mg once daily): −1.5 log10 copies/mL | drug resistance testing (in words) (CCR5-tropic HIV-1; Baseline, Day 7, Day 40, all subjects with evaluable samples): remained fully susceptible
